Measured values: BindingDB's records for doi:10.7270/Q2S46QSD (D3R/Abbott, 2015)

Each compound was assayed against Mitogen-activated protein kinase 1 (Homo sapiens, UniProt P28482) (assay: Photometric_Method2).
Chain of Mitogen-activated protein kinase 1 (P28482 whole entry): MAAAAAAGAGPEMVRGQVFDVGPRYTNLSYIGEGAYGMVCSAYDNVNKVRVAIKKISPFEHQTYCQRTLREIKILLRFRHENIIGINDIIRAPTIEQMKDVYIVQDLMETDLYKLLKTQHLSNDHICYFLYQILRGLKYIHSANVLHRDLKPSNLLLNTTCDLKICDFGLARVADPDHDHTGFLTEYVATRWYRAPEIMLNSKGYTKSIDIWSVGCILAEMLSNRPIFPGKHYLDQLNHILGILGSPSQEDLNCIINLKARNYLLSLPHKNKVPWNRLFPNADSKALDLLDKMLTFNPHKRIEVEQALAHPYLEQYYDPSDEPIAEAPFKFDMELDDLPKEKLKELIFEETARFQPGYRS

Q: Which Ki does the source give for Cc1cnc(N[C@H]2CCCC[C@H]2O)nc1-c1c[nH]c(C(=O)N[C@H](CO)c2ccccc2)c1 [erk000465] here?
A: Its Ki is 7.1 nM.

Q: Which Ki does the source give for Cc1cnc(NN(C)C)nc1-c1c[nH]c(C(=O)N[C@H](CO)c2ccccc2)c1 [erk000505] here?
A: Its Ki is 7.1 nM.

Q: How did the Ki turn out when Cc1cnc(NCCc2ccccc2)nc1-c1c[nH]c(C(=O)N[C@H](CO)c2ccccc2)c1 [erk000578] was run?
A: The Ki was 7.1 nM.

Q: Cc1cnc(NC2CCOCC2)nc1-c1c[nH]c(C(=O)N[C@H](CO)c2cccc(Cl)c2)c1 [erk000584] was tested. Which Ki did it give?
A: Its Ki is 7.9 nM.

Q: Cc1ccc(Nc2ncc(C)c(-c3c[nH]c(C(=O)N[C@H](CO)c4cccc(Cl)c4)c3)n2)cc1 [erk000585] was tested. Which Ki did it give?
A: The Ki was 7.1 nM.

Q: How did the Ki turn out when Cc1cnc(Nc2cccc3c2OC(F)(F)O3)nc1-c1c[nH]c(C(=O)N[C@H](CO)c2ccccc2)c1 [erk000591] was run?
A: Its Ki is 7.9 nM.

Q: With Cc1cccc([C@@H](CO)NC(=O)c2cc(-c3nc(Nc4cccc(F)c4C)ncc3C)c[nH]2)c1 [erk000601] as the compound, how does the Ki read?
A: Its Ki is 7.9 nM.

Q: For Cc1cnc(N[C@H]2CCC[C@H]2O)nc1-c1c[nH]c(C(=O)N[C@H](CO)c2cccc(Cl)c2)c1 [erk000612], which Ki is on record?
A: The Ki was 7.1 nM.

Q: For Cc1cnc(NN2CCCC2)nc1-c1c[nH]c(C(=O)N[C@H](CO)c2cccc(Cl)c2)c1 [erk000624], which Ki is on record?
A: Its Ki is 7.1 nM.

Q: Cc1cnc(Nc2ccc(Cl)cc2Cl)nc1-c1c[nH]c(C(=O)N[C@H](CO)c2ccccc2)c1 [erk000657] was tested. Which Ki did it give?
A: Its Ki is 7.9 nM.

Q: For Cc1cnc(N[C@@H](CO)CC(F)(F)F)nc1-c1c[nH]c(C(=O)N[C@H](CO)c2cccc(Cl)c2)c1 [erk000675], which Ki is on record?
A: The Ki was 7.9 nM.

Q: Which Ki does the source give for CCOC(=O)N1CCC(Nc2ncc(Cl)c(-c3c[nH]c(C(=O)N[C@H](CO)c4cccc(Cl)c4)c3)n2)CC1 [erk000703] here?
A: Its Ki is 7.1 nM.
